Measurements published in PMC3666986 (Clinical Medicine Insights. Pediatrics, 2010).
Entries after “also recorded” stand apart in the source; their conditions may differ. Like-named read-outs stand apart in the source and are kept apart here.

Columns and labels:
[1] = cited from earlier work
glucocorticoid receptor = details: receptor affinity of dexamethasone = 100; cited from earlier work
[2] = cited from earlier work; remark: listed apart in the source
[3] = type: in vivo, human; details: for AUC: AUCτ, des-CIC in serum, Day 7, τ 24 h, mean ± SEM, N 29; for systemic accumulation: once daily administration of ciclesonide to children, with or without spacer; for time serum concentration detectable/observed after inhalation: present study, treatment not specified (discussion)
[4] = adults, ciclesonide via HFA-MDI with AeroChamber Plus; cited from earlier work
[5] = healthy subjects and patients with asthma; cited from earlier work
Pulmonary function tests = type: in vivo, human
[6] = Safety and tolerability monitoring; type: in vivo, human
[7] = Advair HFA; cited from earlier work
[8] = des-CIC, Treatment A 160 μg with spacer / Treatment C 160 μg no spacer, ANOVA
[9] = des-CIC, ciclesonide 80 μg with spacer vs 160 μg without spacer
[10] = des-CIC, ciclesonide 160 μg with spacer vs 160 μg without spacer

C[C@]12C=CC(=O)C=C1CC[C@@H]1[C@@H]2[C@@H](O)C[C@@]2(C)[C@H]1C[C@H]1O[C@@H](C3CCCCC3)O[C@]12C(=O)CO [des-CIC, desisobutyryl-ciclesonide]
bound to plasma protein [1]: About 99% | relative glucocorticoid receptor affinity (glucocorticoid receptor): 1200 | oral bioavailability [2]: less than 1% | time up to which serum concentrations were detectable ([3]; des-CIC, 80 μg ciclesonide (Treatment B), LLOQ 0.01 μg/L): up to 6 h | time up to which serum concentration-time profile curves were obtained ([3]; des-CIC, 160 μg ciclesonide (Treatment A and Treatment C), LLOQ 0.01 μg/L): up to 12 h | AUCτ Ratio [% Ref] [3, 8]: 127 % Ref | Cmax Ratio [% Ref] [3, 8]: 155 % Ref | dose-normalized Cmax higher with spacer than without spacer [3, 9]: 63% | dose-normalized systemic exposure (AUCτ) higher with spacer than without spacer [3, 9]: 26% | dose-normalized Cmax higher with spacer than without spacer [3, 10]: 55% | dose-normalized systemic exposure (AUCτ) higher with spacer than without spacer [3, 10]: 27% | AUC ([3]; human, serum, inhaled, 80 ug, Treatment B 80 μg CIC with spacer): 0.316 ± 0.022 ng·h/mL | AUC ([3]; human, serum, inhaled, 160 ug, Treatment C 160 μg CIC no spacer): 0.542 ± 0.042 ng·h/mL | Tmax ([3]; human, serum, inhaled, tmax, des-CIC, similar for all treatments): 42 min | systemic accumulation [3]: does not lead to systemic accumulation | time serum concentration detectable/observed after inhalation [3]: up to 12 h | effect of spacer on PK [4]: did not influence the PK

CC(C)C(=O)OCC(=O)[C@@]12O[C@H](C3CCCCC3)O[C@@H]1C[C@H]1[C@@H]3CCC4=CC(=O)C=C[C@]4(C)[C@H]3[C@@H](O)C[C@@]12C [ciclesonide]
bound to plasma protein [1]: About 99% | oral bioavailability [2]: < 1% | lung deposition [5]: more than 50% | systemic accumulation [3]: does not lead to systemic accumulation | time up to which serum concentrations were detectable ([3]; parent ciclesonide, Treatment A and C (160 μg), LLOQ 0.01 μg/L): up to 3 h | time up to which serum concentrations were measurable ([3]; parent ciclesonide, Treatment B (80 μg with spacer), LLOQ 0.01 μg/L): up to 1.5 h | time serum concentration detectable/observed after inhalation [3]: about 3 h | change in lung function (Pulmonary function tests; between screening, Day 7 of each treatment period, and study end): did not change to any relevant extent | FEV1 at study end (Pulmonary function tests; mean ± SD, screening value 1.81 ± 0.44): 1.76 ± 0.42 L | relation of AEs to study medication ([6]; assessed by investigator and sponsor): not related | tolerability ([6]; ciclesonide 80 or 160 μg once daily, 7-day periods, with or without spacer): well tolerated | number of patients reporting AEs ([6]; during the three treatment periods, 37 patients): 24 | clinically relevant abnormalities (laboratory values) / adverse drug reactions ([6]; whole study): No clinically relevant abnormalities or adverse drug reactions; also recorded: No clinically relevant abnormalities

CCC(=O)O[C@]1(C(=O)SCF)[C@H](C)C[C@H]2[C@@H]3C[C@H](F)C4=CC(=O)C=C[C@]4(C)[C@@]3(F)[C@@H](O)C[C@@]21C [fluticasone propionate]
increase of AUC0–last with spacer [7]: 406% | increase of Cmax with spacer [7]: 210%

C[C@@H]1C[C@H]2[C@@H]3CCC4=CC(=O)C=C[C@]4(C)[C@@]3(F)[C@@H](O)C[C@]2(C)[C@@]1(O)C(=O)CO [dexamethasone]
relative glucocorticoid receptor affinity (glucocorticoid receptor): 100
